According to article PMC3744530, “CTA095, a Novel Etk and Src Dual Inhibitor, Induces Apoptosis in Prostate Cancer Cells and Overcomes Resistance to Src Inhibitors” (PLoS ONE, 2013):

Experiments:
[1] = tested on: Myc mRNA in PC3-AZD20 cells; assay: Real-time PCR of Myc mRNA; format: cell-based, human; conditions: PC3-AZD20, 10 μM, RT-PCR
Experimental: PC3-AZD20 cells were seeded at 10^6 cells/well in 6 well plates overnight. The cells were treated with AZD0530 or CTA095 at 10 μM. Apoptosis was analyzed using Annexin-V FITC apoptosis detection kit. The mRNA levels of Myc and BCL2 were measured using real-time PCR. pEtk, Etk, pSrc, Src, pStat3, Stat3, Myc and BCL2 levels were measured using the corresponding antibodies through a Western blot.
Figure 12 CTA095 induces apoptosis in Src inhibitor resistant prostate cancer cells through Myc and BCL2 inhibition. PC3-AZD20 (PC3 cell resistant to 20 μM AZD0530) cells were seeded at 10^6 cells/well in 6 well plates overnight. The cells were treated with AZD0530 or CTA095 at 10 μM. Apoptosis was analyzed using Annexin-V FITC apoptosis detection kit (A). The mRNA levels of Myc and BCL2 were measured using real-time PCR (B). pEtk, Etk, pSrc, Src, pStat3, Stat3, Myc and BCL2 levels were measured using the corresponding antibodies through Western blot (C). Columns, mean; bars, standard deviation, n = 3.

Etk = biological target: T1, Etk (Homo sapiens, UniProt P51813); assay: Etk autophosphorylation assay (in vitro kinase assay); format: biochemical; conditions: purified Etk, 33P-ATP, 30 min
T1 construct: purchased Millipore Inc (Dundee, UK)
T1 sequence (P51813 1-675): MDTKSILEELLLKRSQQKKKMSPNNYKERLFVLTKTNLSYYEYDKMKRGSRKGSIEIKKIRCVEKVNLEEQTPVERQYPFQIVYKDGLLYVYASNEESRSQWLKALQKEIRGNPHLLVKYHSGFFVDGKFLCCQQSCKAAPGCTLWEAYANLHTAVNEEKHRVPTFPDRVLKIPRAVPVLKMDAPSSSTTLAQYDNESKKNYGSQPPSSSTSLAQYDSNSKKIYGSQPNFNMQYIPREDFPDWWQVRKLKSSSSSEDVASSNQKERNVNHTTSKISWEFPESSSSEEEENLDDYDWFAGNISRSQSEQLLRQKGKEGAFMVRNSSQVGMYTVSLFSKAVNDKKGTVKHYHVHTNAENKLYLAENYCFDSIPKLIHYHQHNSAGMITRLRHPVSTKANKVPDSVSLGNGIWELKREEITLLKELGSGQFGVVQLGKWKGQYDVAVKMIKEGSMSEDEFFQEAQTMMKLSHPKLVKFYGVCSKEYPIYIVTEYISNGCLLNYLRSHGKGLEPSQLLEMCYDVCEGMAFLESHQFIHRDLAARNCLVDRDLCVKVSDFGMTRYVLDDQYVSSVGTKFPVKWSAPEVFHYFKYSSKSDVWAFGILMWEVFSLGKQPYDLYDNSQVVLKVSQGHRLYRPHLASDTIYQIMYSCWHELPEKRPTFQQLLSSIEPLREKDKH
Experimental: Etk autophosphorylation activity was measured by an in vitro kinase assay. Briefly, purified Etk (100 ng) was mixed with CTA095 in the kinase assay buffer (20 mM Hepes pH 7.55, 10 mM MgCl2, 10 mM MnCl2, 1 mM DTT, 500 μM Na3VO4). The cold ATP (5 µM) and hot r-^33P-ATP (5 µCi) were added to the mixture and the kinase reaction was performed at 30°C for 30 min. The reactions were terminated with a 4X SDS-PAGE sample buffer, and then loaded onto an 8% SDS-polyacrylamide gel for electrophoresis. The gel was vacuum dried and the ETK auto kinase activity was analyzed with a phosphoimager (Biorad).
The Btk family of non-receptor tyrosine kinases is characterized by the presence of an autophosphorylation site within the non-catalytic Src homology 3 (SH3) domain. Thus, it was also important to determine the ability of CTA095 to inhibit Etk autophosphorylation. Therefore, an in vitro Etk autophosphorylation assay was established in which purified Etk was mixed with CTA095 in the presence of ^33P-ATP. After 30 min, the reaction was terminated, and the samples were loaded onto an SDS-polyacrylamide gel for electrophoresis. After drying, the gel was analyzed with a phosphoimager.

HUVEC cells = assay: HUVEC cell tube formation assay; format: cell-based; conditions: 5 μM, 6 h
Experimental: HUVEC cells were seeded on mitrogel and treated with CTA095 (0 and 5 μM) for 6 h. Vascular tube formation was visualized using a microscope.
Figure 8 Inhibition of tube formation and cell migration by CTA095. Inhibition of vascular tube formation of HUVEC endothelial cells (A) and inhibition of migration (wound healing) of PC3 human prostate cancer cells (B) by CTA095. (A) HUVEC cells were seed on mitrogel and treated with CTA095 (0 and 5 μM) for 6 h. Vascular tube formation was visualized using microscope. (B) PC3 cells were grown in 6-well plate to 60% confluency. Then wounds were made and treated with CTA095 (0 and 5 μM). Cell migration (wound healing) was visualized under microscope at the indicated times.

[2] = tested on: Src phosphorylation in PC3-Etk cells; assay: Western blot of Src phosphorylation in intact cells; format: cell-based, human; conditions: 5 μM and 10 μM, 24 h
Experimental: Western blotting was performed as described previously. Proteins were detected using the following antibodies: β-actin (Sigma-Aldrich, Saint Louis, MO), Etk (Santa Cruz Inc., Santa Cruz, CA), pEtk; Src, pSrc; Stat3, pStat3. For phospho-Etk, cells were pre-treated with 100 μM pervanadate for 15 min before harvest.
Figure 4 Inhibition of cell signaling in PC3 cells following treatment with CTA095. Cells were grown in 10 mm plate to 50% confluence and treated with CTA095. Cells were harvested after 24 h. pEtk, Etk, pSrc, Src, pStat3, Stat3, pAkt and Akt levels were measured using the corresponding antibodies by Western blot. One of three similar experiments depicted.

O=c1[nH]c2cc3nc(-c4ccc5oc6ccccc6c5c4)n(CCCN4CCCCC4)c3cc2nc1-c1ccccc1 [CTA095, 2-(dibenzo[b,d]furan-2-yl)-7-phenyl-1-(3-(piperidin-1-yl)propyl)-1H-imidazo[4,5-g]quinoxalin-6(5H)-one]
Myc mRNA level [1]: significantly down regulated
Etk autophosphorylation (Etk): inhibit Etk autophosphorylation in a concentration dependent manner
tube formation of HUVEC cells (HUVEC cells): disrupted
Src phosphorylation [2]: significantly inhibited
